System: human iPS cells (TkDN4-M)
Assay: Cell aggregate size distribution (widest portion) from micrographs during suspension culture
Format: cell-based
Details: cytochalasin D 20 nM, jasplakinolide 20 nM, demecolcine 10 ng/mL; for percentage of cell aggregates whose size (diameter) was 40 μm or more and 300 μm or less, relative to the total cell aggregate count / percentage of cell aggregates whose size (diameter) was 60 μm or more and 300 μm or less / percentage of cell aggregates whose size (diameter) was 80 μm or more and 300 μm or less / percentage of cell aggregates whose size (diameter) was 100 μm or more and 300 μm or less / Number of cell aggregates by size / Percentage of cell aggregates by size: Day 1, DMSO 1%; for average ± standard deviation of cell aggregate sizes (diameters): Day 1 of culture, DMSO 1% (v/v), Y-27632 10 μM
Experimental: Cell suspensions were prepared in the same manner as in Example 2, and separately, the concentrations of the suppressors of cell aggregation were adjusted so that the final concentration of demecolcine (same as above) was 10 mg/mL (26.9 mM), the final concentration of cytochalasin D (same as above) was 0.51 mg/mL (1 mM), the concentration of DMSO (the same as above) was the stock concentration, or the final concentration of jasplakinolide (Cayman, 11705) was 0.14 mg/mL (0.2 mM). Then the concentration-adjusted cell aggregation suppressors were added to the cell suspensions so that the final concentration of demecolcine was 10 ng/mL, the final concentration of cytochalasin D was 20 nM, the final concentration of DMSO was 1% (v/v), or the final concentration of jasplakinolide was 20 nM, and the cells were seeded at a rate of 4 mL/well in a 6-well plate for suspension culture (Sumitomo Bakelite Co., Ltd., Japan). The cell-seeded plate was subjected to a swirling culture on a rotary shaker (OPTIMA, Inc., Japan) at a speed of 90 rpm along the horizontal plane to draw a circle with a swirling width (diameter) of 25 mm and cells were subjected to suspension culture under the environment of 5% CO2 and 37° C. After the next day of culture (Day 1 of culture), the culture medium was exchanged daily with a fresh culture medium (Essential 8™ culture medium containing BSA (Wako Pure Chemical Industries, Ltd.) at a final concentration of 5 mg/mL), and the culture was continued until 5 days after the start of culture. Images were obtained by phase contrast microscopy every day during culture. While 182 to 252 cell aggregates in images obtained on Day 1 of culture being observed and compared using a micrograph scale, the width (referred to as “φ”) of the widest portion of each cell aggregate was measured, distribution thereof was examined, and average±standard deviation was calculated. The concentration of glucose contained in the culture supernatant collected at the time of culture medium exchange was measured with biosensor BF-5iD (Prince Measuring Equipment Co., Ltd.) to calculate glucose consumption.

| Compound | percentage of cell aggregates whose size (diameter) was 40 μm or more and 300 μm or less, relative to the total cell aggregate count | percentage of cell aggregates whose size (diameter) was 60 μm or more and 300 μm or less | percentage of cell aggregates whose size (diameter) was 80 μm or more and 300 μm or less | percentage of cell aggregates whose size (diameter) was 100 μm or more and 300 μm or less | Number of cell aggregates by size (size range 40− μm) | Percentage of cell aggregates by size (size range 40− μm) | Number of cell aggregates by size (size range 60− μm) | Percentage of cell aggregates by size (size range 60− μm) | Number of cell aggregates by size (size range 80− μm) | Percentage of cell aggregates by size (size range 80− μm) | Number of cell aggregates by size (size range 100− μm) | Percentage of cell aggregates by size (size range 100− μm) | Number of cell aggregates by size (size range 120− μm) | Percentage of cell aggregates by size (size range 120− μm) | Number of cell aggregates by size (size range 140− μm) | Percentage of cell aggregates by size (size range 140− μm) | Number of cell aggregates by size (size range 160− μm) | Percentage of cell aggregates by size (size range 160− μm) | Number of cell aggregates by size (size range 180− μm) | Percentage of cell aggregates by size (size range 180− μm) | also measured |
| --- | --- | --- | --- | --- | --- | --- | --- | --- | --- | --- | --- | --- | --- | --- | --- | --- | --- | --- | --- | --- | --- |
| C[S+](C)[O-] [DMSO, dimethylsulfoxide] | 100% | 100% | 98.5% | 96.0% | 0 | 0.0% | 3 | 1.5% | 5 | 2.5% | 2 | 1.0% | 24 | 12.1% | 56 | 28.1% | 56 | 28.1% | 33 | 16.6% | Number of cell aggregates by size (size range 200− μm): 12; Percentage of cell aggregates by size (size range 200− μm): 6.0%; Number of cell aggregates by size (size range 220− μm): 5; Percentage of cell aggregates by size (size range 220− μm): 2.5%; Number of cell aggregates by size (size range 240− μm): 1; Percentage of cell aggregates by size (size range 240− μm): 0.5%; Number of cell aggregates by size (size range 260− μm): 1; Percentage of cell aggregates by size (size range 260− μm): 0.5%; Number of cell aggregates by size (size range 280− μm): 1; Percentage of cell aggregates by size (size range 280− μm): 0.5%; Number of cell aggregates by size (size range 300− μm): 0; Percentage of cell aggregates by size (size range 300− μm): 0.0%; average ± standard deviation of cell aggregate sizes (diameters): 164.8±31.8 μm |
| C=C1[C@@H](C)[C@H]2[C@H](Cc3ccccc3)NC(=O)[C@]23[C@H](OC(C)=O)/C=C/[C@@](C)(O)C(=O)[C@@H](C)C/C=C/[C@H]3[C@@H]1O [cytochalasin D] | 100% | 96% | 88.1% | 80.6% | 10 | 4.0% | 20 | 7.9% | 19 | 7.5% | 26 | 10.3% | 60 | 23.8% | 66 | 26.2% | 40 | 15.9% | 10 | 4.0% | Number of cell aggregates by size (size range 200− μm): 0; Percentage of cell aggregates by size (size range 200− μm): 0.0%; Number of cell aggregates by size (size range 220− μm): 1; Percentage of cell aggregates by size (size range 220− μm): 0.4%; Number of cell aggregates by size (size range 240− μm): 0; Percentage of cell aggregates by size (size range 240− μm): 0.0%; Number of cell aggregates by size (size range 260− μm): 0; Percentage of cell aggregates by size (size range 260− μm): 0.0%; Number of cell aggregates by size (size range 280− μm): 0; Percentage of cell aggregates by size (size range 280− μm): 0.0%; Number of cell aggregates by size (size range 300− μm): 0; Percentage of cell aggregates by size (size range 300− μm): 0.0%; average ± standard deviation of cell aggregate sizes (diameters): 132.5±34.8 μm |
| CN[C@H]1CCc2cc(OC)c(OC)c(OC)c2-c2ccc(OC)c(=O)cc21 [demecolcine] | 100% | 97.3% | 93.5% | 92.4% | 5 | 2.7% | 7 | 3.8% | 2 | 1.1% | 0 | 0.0% | 2 | 1.1% | 16 | 8.8% | 37 | 20.3% | 45 | 24.7% | Number of cell aggregates by size (size range 200− μm): 38; Percentage of cell aggregates by size (size range 200− μm): 20.9%; Number of cell aggregates by size (size range 220− μm): 19; Percentage of cell aggregates by size (size range 220− μm): 10.4%; Number of cell aggregates by size (size range 240− μm): 8; Percentage of cell aggregates by size (size range 240− μm): 4.4%; Number of cell aggregates by size (size range 260− μm): 2; Percentage of cell aggregates by size (size range 260− μm): 1.1%; Number of cell aggregates by size (size range 280− μm): 0; Percentage of cell aggregates by size (size range 280− μm): 0.0%; Number of cell aggregates by size (size range 300− μm): 1; Percentage of cell aggregates by size (size range 300− μm): 0.5%; average ± standard deviation of cell aggregate sizes (diameters): 184.9±44.9 μm |

From patent US20220267736A1, “PLURIPOTENT STEM CELL AGGREGATION SUPPRESSOR” (KANEKA CORPORATION, priority 2017, published 2022)
